{
  "source": "ChEMBL document CHEMBL5465560",
  "about": "“Selectivity Literature for EUbOPEN Chemogenomic Library” (2024)",
  "key": {"[1]": {"target": "Serine/threonine-protein kinase PAK 3 (Homo sapiens) (UniProt O75914)", "conditions": "at 10 µM"}, "[2]": {"target": "Mitogen-activated protein kinase 10 (Homo sapiens, UniProt P53779)", "sequence (P53779 whole entry)": "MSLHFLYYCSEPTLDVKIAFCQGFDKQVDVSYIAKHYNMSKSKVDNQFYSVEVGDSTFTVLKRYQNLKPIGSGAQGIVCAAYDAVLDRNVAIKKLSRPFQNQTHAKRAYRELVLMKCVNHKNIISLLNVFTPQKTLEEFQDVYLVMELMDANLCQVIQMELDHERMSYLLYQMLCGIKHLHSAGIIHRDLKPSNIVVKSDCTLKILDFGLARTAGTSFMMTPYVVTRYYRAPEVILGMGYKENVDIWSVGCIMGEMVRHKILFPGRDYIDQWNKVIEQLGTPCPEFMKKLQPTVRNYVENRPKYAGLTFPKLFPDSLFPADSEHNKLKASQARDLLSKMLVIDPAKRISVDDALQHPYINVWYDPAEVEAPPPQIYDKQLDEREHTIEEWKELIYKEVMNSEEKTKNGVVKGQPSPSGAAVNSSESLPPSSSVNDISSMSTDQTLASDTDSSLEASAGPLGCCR", "assay": "Selectivity interaction (Kinase panel (Invitrogen)) EUB0000639a MAPK10", "conditions": "at 200 nM"}, "[3]": {"target": "Serine/threonine-protein kinase 24 (Homo sapiens) (UniProt Q9Y6E0)", "sequence (Q9Y6E0 whole entry, looked up)": "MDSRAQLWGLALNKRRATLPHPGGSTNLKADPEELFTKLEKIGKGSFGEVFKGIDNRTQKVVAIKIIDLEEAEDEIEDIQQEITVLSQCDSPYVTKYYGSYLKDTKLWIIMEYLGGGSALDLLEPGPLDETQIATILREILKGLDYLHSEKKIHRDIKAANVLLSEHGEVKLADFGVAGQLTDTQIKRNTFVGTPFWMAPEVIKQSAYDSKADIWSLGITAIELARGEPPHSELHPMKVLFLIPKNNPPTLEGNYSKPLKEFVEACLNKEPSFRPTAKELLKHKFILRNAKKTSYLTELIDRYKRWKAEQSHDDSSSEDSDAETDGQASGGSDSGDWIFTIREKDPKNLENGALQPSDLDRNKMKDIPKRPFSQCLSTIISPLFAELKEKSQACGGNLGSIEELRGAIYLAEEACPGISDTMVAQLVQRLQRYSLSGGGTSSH", "assay": "Selectivity interaction (ActivX KiNativ screen (kinase selectivity in THP-1 cell lysates)) EUB0000639a STK24", "format": "subcellular", "conditions": "lysate, at 0.2 µM"}, "[4]": {"target": "T1, SNF-related serine/threonine-protein kinase (Homo sapiens) (UniProt Q9NRH2)", "T1 sequence (whole entry)": "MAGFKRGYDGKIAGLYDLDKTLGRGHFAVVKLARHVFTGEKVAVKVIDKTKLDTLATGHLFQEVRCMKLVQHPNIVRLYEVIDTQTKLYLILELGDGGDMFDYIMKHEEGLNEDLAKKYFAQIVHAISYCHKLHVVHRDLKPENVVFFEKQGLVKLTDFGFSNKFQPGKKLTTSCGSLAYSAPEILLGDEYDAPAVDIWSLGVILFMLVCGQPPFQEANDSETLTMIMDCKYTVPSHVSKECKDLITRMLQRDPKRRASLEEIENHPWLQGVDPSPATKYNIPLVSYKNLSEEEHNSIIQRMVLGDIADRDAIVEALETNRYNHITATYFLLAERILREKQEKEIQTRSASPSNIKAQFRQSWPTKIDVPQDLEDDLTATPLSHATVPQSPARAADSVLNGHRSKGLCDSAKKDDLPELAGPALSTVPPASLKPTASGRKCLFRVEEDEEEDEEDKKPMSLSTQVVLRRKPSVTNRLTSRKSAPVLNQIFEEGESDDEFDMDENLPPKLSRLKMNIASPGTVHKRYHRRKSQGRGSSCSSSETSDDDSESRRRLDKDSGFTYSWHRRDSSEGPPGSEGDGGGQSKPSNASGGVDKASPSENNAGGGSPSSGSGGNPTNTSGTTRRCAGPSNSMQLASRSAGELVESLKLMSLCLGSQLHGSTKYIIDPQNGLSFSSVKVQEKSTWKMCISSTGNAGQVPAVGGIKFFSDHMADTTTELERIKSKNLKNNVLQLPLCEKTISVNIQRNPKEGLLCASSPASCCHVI", "assay": "Selectivity interaction (ActivX KiNativ screen (kinase selectivity in THP-1 cell lysates)) EUB0000639a SNRK", "format": "subcellular", "conditions": "lysate, at 1 µM"}, "[5]": {"target": "T2, Serine/threonine-protein kinase 17A (Homo sapiens) (UniProt Q9UEE5)", "T2 sequence (whole entry)": "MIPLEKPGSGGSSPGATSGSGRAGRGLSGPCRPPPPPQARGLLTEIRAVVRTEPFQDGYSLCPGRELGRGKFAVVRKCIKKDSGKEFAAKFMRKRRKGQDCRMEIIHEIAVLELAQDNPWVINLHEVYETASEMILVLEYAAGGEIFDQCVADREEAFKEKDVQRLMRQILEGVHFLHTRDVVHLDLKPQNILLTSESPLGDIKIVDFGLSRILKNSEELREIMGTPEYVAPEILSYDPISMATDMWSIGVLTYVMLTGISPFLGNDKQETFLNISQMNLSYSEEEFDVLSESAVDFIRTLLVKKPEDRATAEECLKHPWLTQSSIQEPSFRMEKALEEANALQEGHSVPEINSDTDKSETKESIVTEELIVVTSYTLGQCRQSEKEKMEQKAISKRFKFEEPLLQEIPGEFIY", "conditions": "at 10 µM"}, "[6]": {"target": "Receptor tyrosine-protein kinase erbB-4 (Homo sapiens, UniProt Q15303)", "sequence (Q15303 whole entry)": "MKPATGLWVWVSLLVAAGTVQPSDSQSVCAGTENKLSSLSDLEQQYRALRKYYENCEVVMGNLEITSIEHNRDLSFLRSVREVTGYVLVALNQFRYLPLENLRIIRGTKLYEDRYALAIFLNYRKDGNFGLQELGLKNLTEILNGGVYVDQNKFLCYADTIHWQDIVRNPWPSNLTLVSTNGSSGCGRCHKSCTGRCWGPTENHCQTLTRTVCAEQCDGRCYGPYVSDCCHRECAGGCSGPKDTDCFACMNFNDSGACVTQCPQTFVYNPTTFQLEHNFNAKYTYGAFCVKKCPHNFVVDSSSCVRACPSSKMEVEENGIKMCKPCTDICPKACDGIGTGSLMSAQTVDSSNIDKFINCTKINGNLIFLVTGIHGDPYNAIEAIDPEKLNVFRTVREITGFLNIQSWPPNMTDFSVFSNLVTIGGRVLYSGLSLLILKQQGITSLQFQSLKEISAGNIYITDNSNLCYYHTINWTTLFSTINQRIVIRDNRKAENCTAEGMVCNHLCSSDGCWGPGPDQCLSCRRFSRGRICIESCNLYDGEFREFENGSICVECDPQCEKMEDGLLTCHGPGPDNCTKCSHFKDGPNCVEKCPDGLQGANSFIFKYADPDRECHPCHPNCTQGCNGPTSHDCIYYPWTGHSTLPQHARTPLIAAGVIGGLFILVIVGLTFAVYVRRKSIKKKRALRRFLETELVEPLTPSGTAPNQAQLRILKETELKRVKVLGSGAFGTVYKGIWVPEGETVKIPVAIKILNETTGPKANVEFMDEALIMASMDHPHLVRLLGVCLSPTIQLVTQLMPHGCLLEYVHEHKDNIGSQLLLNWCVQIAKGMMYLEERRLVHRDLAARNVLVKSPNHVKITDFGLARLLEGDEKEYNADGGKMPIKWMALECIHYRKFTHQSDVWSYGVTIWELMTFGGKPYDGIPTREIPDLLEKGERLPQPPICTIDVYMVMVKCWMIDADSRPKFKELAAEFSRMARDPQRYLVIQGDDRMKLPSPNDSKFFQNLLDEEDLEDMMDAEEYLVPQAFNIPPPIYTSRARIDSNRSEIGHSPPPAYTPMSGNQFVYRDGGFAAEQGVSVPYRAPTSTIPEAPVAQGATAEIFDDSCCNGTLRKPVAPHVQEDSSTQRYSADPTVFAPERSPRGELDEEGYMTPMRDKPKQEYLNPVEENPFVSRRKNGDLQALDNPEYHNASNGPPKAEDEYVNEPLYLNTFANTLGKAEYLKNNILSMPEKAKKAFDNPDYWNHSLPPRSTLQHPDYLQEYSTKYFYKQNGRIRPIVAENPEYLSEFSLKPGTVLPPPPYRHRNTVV", "assay": "Selectivity interaction (KinomeScan (DiscoverX)) EUB0000229b ERBB4", "conditions": "at 10 µM"}, "[7]": {"target": "High affinity nerve growth factor receptor (Homo sapiens, UniProt P04629)", "sequence (P04629 33-796 limits assumed)": "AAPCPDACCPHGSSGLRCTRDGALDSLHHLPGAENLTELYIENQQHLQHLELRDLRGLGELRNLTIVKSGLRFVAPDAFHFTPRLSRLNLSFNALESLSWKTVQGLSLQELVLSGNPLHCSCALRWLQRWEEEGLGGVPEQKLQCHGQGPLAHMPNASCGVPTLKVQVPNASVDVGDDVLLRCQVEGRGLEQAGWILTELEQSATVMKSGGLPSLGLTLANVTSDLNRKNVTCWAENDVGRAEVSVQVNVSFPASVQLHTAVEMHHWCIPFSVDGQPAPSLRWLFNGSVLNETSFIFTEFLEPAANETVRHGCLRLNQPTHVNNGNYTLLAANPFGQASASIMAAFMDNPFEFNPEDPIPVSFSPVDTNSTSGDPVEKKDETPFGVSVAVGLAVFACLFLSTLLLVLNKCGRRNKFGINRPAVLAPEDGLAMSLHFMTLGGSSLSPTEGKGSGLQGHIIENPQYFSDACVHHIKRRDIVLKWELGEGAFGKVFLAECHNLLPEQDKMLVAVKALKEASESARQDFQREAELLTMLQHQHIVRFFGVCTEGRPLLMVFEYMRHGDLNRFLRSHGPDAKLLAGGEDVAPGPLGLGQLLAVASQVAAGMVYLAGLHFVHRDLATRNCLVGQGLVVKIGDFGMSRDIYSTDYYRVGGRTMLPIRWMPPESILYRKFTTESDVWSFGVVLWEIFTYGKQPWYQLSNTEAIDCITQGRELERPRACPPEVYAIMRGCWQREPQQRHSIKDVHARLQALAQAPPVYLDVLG", "assay": "Selectivity interaction (ProQinase) EUB0000171b NTRK1"}, "[8]": {"target": "Serine/threonine-protein kinase 24 (Homo sapiens) (UniProt Q9Y6E0)", "assay": "Selectivity interaction (KinomeScan (DiscoverX)) EUB0000045b STK24"}, "[9]": {"target": "Platelet-derived growth factor receptor alpha (Homo sapiens, UniProt P16234)", "assay": "Selectivity interaction (KinomeScan (DiscoverX)) EUB0000655a PDGFRA", "conditions": "at 10 µM"}, "[10]": {"target": "T3, Phosphatidylinositol 5-phosphate 4-kinase type-2 gamma (Homo sapiens) (UniProt Q8TBX8)", "T3 sequence (whole entry)": "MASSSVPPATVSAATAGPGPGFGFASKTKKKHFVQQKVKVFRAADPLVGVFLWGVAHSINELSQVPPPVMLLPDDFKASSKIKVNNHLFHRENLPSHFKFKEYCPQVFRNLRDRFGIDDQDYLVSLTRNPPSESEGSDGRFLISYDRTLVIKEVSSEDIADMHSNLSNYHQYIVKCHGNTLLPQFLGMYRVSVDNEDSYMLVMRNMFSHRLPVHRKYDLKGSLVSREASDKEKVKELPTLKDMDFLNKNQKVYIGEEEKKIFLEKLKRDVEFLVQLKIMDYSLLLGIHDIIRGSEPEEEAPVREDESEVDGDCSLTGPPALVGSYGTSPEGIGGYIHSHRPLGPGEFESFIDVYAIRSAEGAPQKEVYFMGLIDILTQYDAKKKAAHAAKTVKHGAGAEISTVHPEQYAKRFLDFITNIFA", "assay": "Selectivity interaction (KinomeScan (DiscoverX)) EUB0000655a PIP4K2C", "conditions": "at 10 µM"}, "[11]": {"target": "Mitogen-activated protein kinase kinase kinase 10 (Homo sapiens) (UniProt Q02779)", "sequence (Q02779 whole entry, looked up)": "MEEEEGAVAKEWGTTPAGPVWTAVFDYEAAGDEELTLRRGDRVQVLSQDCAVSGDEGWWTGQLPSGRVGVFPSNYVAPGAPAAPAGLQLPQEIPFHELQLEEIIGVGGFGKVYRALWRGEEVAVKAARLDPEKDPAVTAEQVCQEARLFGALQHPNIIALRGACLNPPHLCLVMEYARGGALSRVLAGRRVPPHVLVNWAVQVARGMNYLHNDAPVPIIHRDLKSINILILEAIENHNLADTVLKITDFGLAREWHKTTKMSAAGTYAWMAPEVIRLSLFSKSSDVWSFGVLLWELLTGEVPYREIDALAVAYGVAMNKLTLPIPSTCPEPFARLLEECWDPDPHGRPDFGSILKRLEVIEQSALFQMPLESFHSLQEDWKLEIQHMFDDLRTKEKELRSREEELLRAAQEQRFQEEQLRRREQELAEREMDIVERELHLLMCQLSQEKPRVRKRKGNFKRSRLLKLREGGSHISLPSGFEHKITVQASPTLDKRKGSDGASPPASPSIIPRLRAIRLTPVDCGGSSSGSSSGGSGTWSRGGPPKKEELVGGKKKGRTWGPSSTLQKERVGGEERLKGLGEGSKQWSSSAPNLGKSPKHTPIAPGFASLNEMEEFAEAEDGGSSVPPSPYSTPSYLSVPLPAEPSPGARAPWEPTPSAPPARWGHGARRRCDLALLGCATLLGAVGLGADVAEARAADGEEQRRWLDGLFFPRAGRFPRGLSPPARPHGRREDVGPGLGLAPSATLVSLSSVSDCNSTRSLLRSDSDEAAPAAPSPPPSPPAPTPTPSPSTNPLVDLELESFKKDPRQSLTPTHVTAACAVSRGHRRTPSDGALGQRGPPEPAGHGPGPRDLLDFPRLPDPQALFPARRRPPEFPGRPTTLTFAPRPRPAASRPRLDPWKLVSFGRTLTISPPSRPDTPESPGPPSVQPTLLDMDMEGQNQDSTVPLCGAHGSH", "assay": "Selectivity interaction (KinomeScan (DiscoverX)) EUB0000618a MAP3K10", "conditions": "at 10 µM"}, "[12]": {"target": "Serine/threonine-protein kinase OSR1 (Homo sapiens) (UniProt O95747)", "assay": "Selectivity interaction (KinomeScan (DiscoverX)) EUB0000618a OXSR1", "conditions": "at 10 µM"}, "[13]": {"target": "Calcium/calmodulin-dependent protein kinase type 1D (Homo sapiens) (UniProt Q8IU85)", "assay": "Selectivity interaction (KinomeScan (DiscoverX)) EUB0000666a CAMK1D", "conditions": "at 10 µM"}, "[14]": {"target": "Macrophage colony-stimulating factor 1 receptor (Homo sapiens) (UniProt P07333)", "sequence (P07333 whole entry)": "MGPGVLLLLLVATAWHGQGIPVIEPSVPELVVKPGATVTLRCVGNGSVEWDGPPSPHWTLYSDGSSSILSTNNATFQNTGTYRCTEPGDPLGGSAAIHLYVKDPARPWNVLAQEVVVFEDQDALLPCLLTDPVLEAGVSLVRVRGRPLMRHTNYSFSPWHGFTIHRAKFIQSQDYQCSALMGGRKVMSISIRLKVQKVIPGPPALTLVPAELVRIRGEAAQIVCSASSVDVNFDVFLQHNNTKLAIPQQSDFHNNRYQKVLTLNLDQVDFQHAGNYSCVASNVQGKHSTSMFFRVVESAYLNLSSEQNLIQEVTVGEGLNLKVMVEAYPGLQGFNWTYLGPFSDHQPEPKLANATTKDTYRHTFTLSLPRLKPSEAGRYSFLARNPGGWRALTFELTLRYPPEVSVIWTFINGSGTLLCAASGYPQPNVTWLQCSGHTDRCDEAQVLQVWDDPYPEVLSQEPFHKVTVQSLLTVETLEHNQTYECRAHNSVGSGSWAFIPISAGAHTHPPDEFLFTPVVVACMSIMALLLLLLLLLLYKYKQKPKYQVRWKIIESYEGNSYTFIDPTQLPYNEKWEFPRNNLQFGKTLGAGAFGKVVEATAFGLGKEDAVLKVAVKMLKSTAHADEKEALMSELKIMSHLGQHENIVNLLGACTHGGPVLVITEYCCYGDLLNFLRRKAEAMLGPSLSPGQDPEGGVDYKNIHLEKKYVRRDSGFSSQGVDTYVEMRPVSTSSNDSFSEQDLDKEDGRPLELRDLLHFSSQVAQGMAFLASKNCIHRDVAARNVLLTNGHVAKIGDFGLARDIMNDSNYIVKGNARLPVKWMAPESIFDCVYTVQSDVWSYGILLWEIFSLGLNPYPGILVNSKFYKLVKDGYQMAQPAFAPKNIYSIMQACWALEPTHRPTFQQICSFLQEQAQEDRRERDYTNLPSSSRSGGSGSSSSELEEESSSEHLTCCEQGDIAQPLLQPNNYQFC", "assay": "Selectivity interaction (KinomeScan (DiscoverX)) EUB0000666a CSF1R", "conditions": "at 10 µM"}},
  "data": [
    {"molecule": "Cc1cc([C@@H](C)Nc2ccccc2C(=O)O)c2nc(N3CCOCC3)cc(=O)n2c1", "note": "[AZD-6482]", "values": [
      {"measurement": "% of control", "setting": "[1]", "value": 98, "unit": "%"}
    ]},
    {"molecule": "CC[C@@H]1[C@H](F)C(=O)N[C@@H]1COc1nccc2cc(C(N)=O)c(OC)cc12", "note": "[ZIMLOVISERTIB]", "values": [
      {"measurement": "% of inhibition", "setting": "[2]", "value": 6.65, "unit": "%"},
      {"measurement": "% of inhibition", "setting": "[3]", "value": 5.6, "unit": "%"},
      {"measurement": "% of inhibition", "setting": "[4]", "value": 2.6, "unit": "%"}
    ]},
    {"molecule": "CCN(CC)CCCCNc1ncc2cc(-c3cc(OC)cc(OC)c3)c(NC(=O)NC(C)(C)C)nc2n1", "values": [
      {"measurement": "% of control", "setting": "[5]", "value": 100, "unit": "%"}
    ]},
    {"molecule": "COc1cc(N(C)c2ccnc3ccc(C(F)(F)F)cc23)cc(OC)c1OC", "values": [
      {"measurement": "% binding", "setting": "[6]", "value": 81, "unit": "%"}
    ]},
    {"molecule": "C=CC(=O)Nc1cccc(C(=O)Nc2ccc(Nc3cc(-c4[nH]c(SC)nc4C)ccn3)cc2)c1", "values": [
      {"measurement": "% of control", "setting": "[7]; at 1 µM", "value": 81, "unit": "%"},
      {"measurement": "% of control", "setting": "[7]; at 5 µM", "value": 58, "unit": "%"}
    ]},
    {"molecule": "C=CC(=O)Nc1cc(-n2c(=O)ccc3cnc4ccc(-c5ccc(NS(C)(=O)=O)cc5)cc4c32)ccc1C", "values": [
      {"measurement": "% of control", "setting": "[8]; at 1 µM", "value": 100, "unit": "%"},
      {"measurement": "% of control", "setting": "[8]; at 10 µM", "value": 93, "unit": "%"}
    ]},
    {"molecule": "CN(C)CCOc1ccc(-c2nc(-c3ccncc3)c(-c3ccc4c(c3)CC/C4=N\\O)[nH]2)cc1", "values": [
      {"measurement": "% of control", "setting": "[9]", "value": 100, "unit": "%"},
      {"measurement": "% of control", "setting": "[10]", "value": 100, "unit": "%"}
    ]},
    {"molecule": "O[C@H]1CC[C@H](Nc2ncc3nc(Nc4c(F)cc(F)cc4F)n([C@H]4CCOC4)c3n2)CC1", "values": [
      {"measurement": "% of control", "setting": "[11]", "value": 100, "unit": "%"},
      {"measurement": "% of control", "setting": "[12]", "value": 100, "unit": "%"}
    ]},
    {"molecule": "O=C(NOC[C@H](O)CO)c1ccc(F)c(F)c1Nc1ccc(I)cc1F", "values": [
      {"measurement": "% of control", "setting": "[13]", "value": 89, "unit": "%"},
      {"measurement": "% of control", "setting": "[14]", "value": 100, "unit": "%"}
    ]}
  ]
}
